Measured values published in patent US8178545B2, “Dual small molecule inhibitors of cancer and angiogenesis” (University of Virginia Patent Foundation, priority 2004, dated 2012).
Entries after “also recorded” stand apart in the source; their conditions may differ. Read-outs that look alike come from different tables or passages of the source. One block for each molecule: values may come before it.

Columns and labels:
COLO205 [1] = conditions: NCI data; cited from earlier work
SW-620 [2] = conditions: NCI data; cited from earlier work
HCT-116 [3] = conditions: NCI data; cited from earlier work
HCT-15 [4] = conditions: NCI data; cited from earlier work
HT29 [5] = conditions: NCI data; cited from earlier work
KM12 [6] = conditions: NCI data; cited from earlier work
HCC-2998 [7] = conditions: NCI data; cited from earlier work
A-10 cells = assay: Cell based phenotypic screen of microtubule disruption
Description: FIG. 2 Depicts the microtubule depolymerizing effects of SC-2-71 in A-10 cells.
The microtubule disrupting effects of SC-2-71 were detected in a cell based phenotypic screen (FIG. 2). […] This effect is consistent with the effects observed from other microtubule depolymerizers. […] This is also a hallmark of microtubule disrupting compounds. Depolymerization of interphase microtubules is a classic response of cells to relatively high concentrations of microtubule disruptors such as the vinca alkaloids.

NCI 60 human cell lines = NCI 60 human cell lines (GI50); format: cell-based; conditions: several cell lines of the NCI 60 panel
Description: FIG. 1 Depicts the effects of SC-2-71 against the NCI 60 human cell lines (GI50).
Several interesting findings are evident.

MDA-MB-435 cells [8] = assay: Cell cycle progression by flow cytometry; format: cell-based; conditions: 3 μM for 18 h, Krishan's reagent
Experimental: The effects of SC-2-71 on cell cycle progression were determined using flow cytometry techniques. MDA-MB-435 cells were treated with 3 μM SC-2-71 for 18 h, stained with Krishan's reagent and DNA content analyzed.

[9] = tested on: NCI/ADR cells (Pgp expressing); assay: Proliferation of Pgp expressing cell line; format: cell-based; conditions: for IC50: Homo sapiens, NCI/ADR-RES; for Rr value: relative resistance, NCI/ADR vs MDA-MB-435
Description: Relative resistance (Rr) values can be calculated by dividing the IC50 of the […] cell line.

[10] = tested on: blood vessels on the chick chorioallantoic membrane; assay: Chick chorioallantoic membrane (CAM) model of blood vessel growth; format: in vivo; conditions: 100 μM, compared to control
Experimental: SC-2-71 (100 μM) inhibited a translational model of blood vessel growth in vivo (CAM, FIG. 8, panel B and C) as compared to control (FIG. 8, panel A). This strongly establishes that SC-2-71 has anti-angiogenic activity. Further it raises the question as to the expression level of βIII tubulin in HMECs.

HeLa cells = assay: Mitotic spindle formation; format: cell-based; conditions: low micromolar concentrations
tubulin = assay: Microtubule disruption / tubulin depolymerization; format: cell-based; conditions: for Microtubule activity (% depolymerization): at 5 μM
HCT-15 [11] = assay: NCI anticancer drug screen, proliferation (GI50); format: cell-based; conditions: Homo sapiens
Experimental: (§1) SC-2-71 was evaluated against human cultured cell lines in the NCI Anticancer Drug Development Program. […] This includes potent inhibition of colon cancer cells from primary tumors, distal metastasis and ascites fluid.

COLO205 [12] = assay: NCI anticancer drug screen, proliferation (GI50); format: cell-based; conditions: Homo sapiens, COLO 205
Experimental: as §1

HCT-116 [13] = assay: NCI anticancer drug screen, proliferation (GI50); format: cell-based; conditions: Homo sapiens, grade III tumor cells (HCT116)
Experimental: as §1

KM12 [14] = assay: NCI anticancer drug screen, proliferation (GI50); format: cell-based; conditions: Homo sapiens
Experimental: as §1

HCC-2998 [15] = assay: NCI anticancer drug screen, proliferation (GI50); format: cell-based; conditions: Homo sapiens
Experimental: as §1

SW-620 [16] = assay: NCI anticancer drug screen, proliferation (GI50); format: cell-based; conditions: Homo sapiens
Experimental: as §1

HT29 [17] = assay: NCI anticancer drug screen, proliferation (GI50); format: cell-based; conditions: Homo sapiens, HT-29
Experimental: as §1

[18] = tested on: Human Umbilical Vein Endothelial Cells (HUVEC); assay: Endothelial cell proliferation; format: cell-based; conditions: triplicate, ± SEM
Description: (§2) Without wishing to be bound by any particular theory, strategies and experiments are described herein pertaining to developing an anti-cancer strategy of simultaneously inhibiting endothelial and cancer cells. […] The taxanes, taxol and docetaxel, vinblastine, vincristine and 2-methoxyestradiol all have anti-angiogenic activity in vivo. […] SC-2-71's ability to inhibit angiogenesis in an in vivo model was then examined.

[19] = tested on: Human Microvessel Endothelial Cells (HMEC); assay: Endothelial cell proliferation; format: cell-based; conditions: triplicate, ± SEM
Description: as §2

MDA-MB-435 cells [20] = assay: Anti-proliferative activity, SRB assay; format: cell-based; conditions: Homo sapiens
[21] = tested on: NCI/ADR cells (Pgp expressing); conditions: NCI/ADR (Pgp expressing) and MDA-MB-435 (Pgp deficient); Tinley et al. 2003; cited from earlier work

Compound: O=c1[nH]cc(F)c(=O)[nH]1 [Compound 5FU, 5-Fluorouracil]
GI50 (COLO205 [1]): 7.2 µM
GI50 (SW-620 [2]): 26.2 µM
GI50 (HCT-116 [3]): 4000 nM
GI50 (HCT-15 [4]): 5800 nM
GI50 (HT29 [5]): 6.7 µM
GI50 (KM12 [6]): 11.1 µM
GI50 (HCC-2998 [7]): 1400 nM

IC50 (MDA-MB-435 cells [20]): 0.61 ± 0.1 µM
Compound: O=C1NC(c2ccc(-c3ccccc3)cc2)Nc2ccccc21 (stereo not drawn) [SC-2-71]
micronucleation (A-10 cells): extensive micronucleation
effect on cellular microtubules (A-10 cells; interphase microtubule network): concentration dependent loss of cellular microtubules
GI50 (NCI 60 human cell lines): > 100 µM
cell cycle progression (DNA content) (MDA-MB-435 cells [8]): distinct mitotic accumulation
IC50 [9]: 1.8 ± 0.11 µM
transport by Pgp ([9]; inferred from Rr values): poor substrate for transport by Pgp
Rr value [9]: 2.95
blood vessel growth (CAM) [10]: inhibited
mitotic spindles and mitotic accumulation (HeLa cells): formation of abnormal mitotic spindles and mitotic accumulation
Microtubule activity (% depolymerization) (tubulin): 50%
GI50 (HCT-15 [11]): 400 nM
GI50 (COLO205 [12]): 900 nM
GI50 (HCT-116 [13]): 500 nM
GI50 (KM12 [14]): 2000 nM
GI50 (HCC-2998 [15]; HCC 2998, colon HCC2998, read-out: lowest GI50): 68 nM
GI50 (HCC-2998 [15]; HCC-2998, read-out: GI50): 68 nM
GI50 (SW-620 [16]): 4 µM
GI50 (HT29 [17]): 1000 nM
IC50 ([18]; Homo sapiens, HUVEC): 1600 nM
IC50 [18]: 1660 ± 500 nM
IC50 [19]: 20 µM

IC50 (MDA-MB-435 cells [20]): 0.9 ± 0.3 µM
Compound: O=C(c1ccccc1)c1ccc(C2NC(=O)c3ccccc3N2)cc1 (stereo not drawn) [SC-4-283]
inhibition of tubulin polymerization (tubulin): improved inhibitory activity in relation to SC-2-71; also recorded: potent inhibitor of tubulin polymerization
Microtubule activity (% depolymerization) (tubulin): 50% at 5 μM

IC50 (MDA-MB-435 cells [20]): 0.26 ± 0.02 µM
Compound: O=C(c1ccccc1)c1ccc(C2NC(=O)c3ccccc3N2)cc1Cl (stereo not drawn) [SC-5-87]
IC50 [9]: 0.76 ± 0.01 µM
Rr value [9]: 2.9
Microtubule activity (% depolymerization) (tubulin): 90% at 5 μM

IC50 (MDA-MB-435 cells [20]): 0.6 ± 0.1 µM
Compound: Cc1ccccc1-c1ccc(C2NC(=O)c3ccccc3N2)cc1 (stereo not drawn) [SC-5-121]
IC50 [9]: 0.88 ± 0.03 µM
Rr value [9]: 1.2
Microtubule activity (% depolymerization) (tubulin): 90% at 5 μM

Compound: CC[C@]1(O)C[C@H]2CN(CCc3c([nH]c4ccccc34)[C@@](C(=O)OC)(c3cc4c(cc3OC)N(C=O)[C@H]3[C@@](O)(C(=O)OC)[C@H](OC(C)=O)[C@]5(CC)C=CCN6CC[C@]43[C@@H]65)C2)C1 [Vincristine]
GI50 (COLO205 [1]): 0.12 µM
GI50 (SW-620 [2]): 0.11 µM
GI50 (HCT-116 [3]): 120 nM
GI50 (HCT-15 [4]): 140 nM
GI50 (HT29 [5]): 0.11 µM
GI50 (KM12 [6]): 0.12 µM
GI50 (HCC-2998 [7]): 110 nM

Compound: CC(=O)O[C@H]1C(=O)[C@@]2(C)[C@H]([C@H](OC(=O)c3ccccc3)[C@]3(O)C[C@H](OC(=O)[C@H](O)[C@@H](NC(=O)c4ccccc4)c4ccccc4)C(C)=C1C3(C)C)[C@]1(OC(C)=O)CO[C@@H]1C[C@@H]2O [taxol]
Rr value [21]: 827
